Data published in article PMC3878228 (BMC Plant Biology, 2013).
Entries after “also recorded” stand apart in the source; their conditions may differ. One block for each molecule: values may come before it.

Assays:
[1] = 200 μL medium with five pre-germinated Arabidopsis (Ler) seedlings; conditions: 22°C
[2] = system: primary roots / root meristems (RMs) of Ler seedlings; test: In vitro root assay in Ler seedlings; format: in vivo, Arabidopsis; conditions: for Concentration at which the peptide was active in the root assay (primary root length): Ler seedlings, 8-d inoculation, tested at 10 nM, 30 nM, 100 nM, 1 μM
Method: (§1) Similarly, in vitro root assays were performed in Ler and clv2-1 (in Ler background) seedlings.
To evaluate activities of above-mentioned synthetic peptides with various N-terminal extensions, we performed in vitro root assays using Ler seedlings. The lengths of primary roots were measured after 8-d inoculations with either CLV3p12, L-CLV3p13, EEL-CLV3p15, HEEL-CLV3p16 or LHEEL-CLV3p17 at concentrations of 10 nM, 30 nM, 100 nM, or 1 μM (Figure 4).
(§2) Seeds of clv1-1, clv2-1 and clv3-2 (all in Ler background), Col-0 and Ler were gas-sterilized as reported previously, and imbibed in sterilized distilled water at 4°C in dark for 2 days before plating. In vitro root and SAM assays were performed as described.

CLV1 = conditions: tobacco BY-2 cells; cited from earlier work
Source text: (§3) CLV3 is one of the well-studied peptide hormones in plants. The CLV3 gene encodes a 96-AA secretory protein that functions in a feedback regulation loop to restrict the number of stem cells in SAMs by repressing the expression of the WUSCHEL (WUS) transcription factor [16, 21]. […] CLV3 sh ...

[3] = system: shoot and root meristems (RMs); conditions: synthetic peptides corresponding to the CLE motif; cited from earlier work
Source text: as §3

[4] = system: shoot apical meristems (SAMs) of clv3-2 seedlings; test: In vitro SAM assay in clv3-2 seedlings; format: in vivo, Arabidopsis; conditions: for Sizes of SAMs of clv3-2 seedlings after treatment: 1 μM fusion protein, 8 days, 8-d-old clv3-2 seedlings, n = 8, P < 0.01 Student's t-test
Method: (§4) In vitro activity assays of the TH-ProCLV3 fusion protein in SAMs were performed using clv3-2 and clv1-1 (both in Ler background) mutants of Arabidopsis, as described previously.
as §2

[5] = 200 μL liquid medium with five pre-germinated Ler seedlings (half-strength Murashige and Skoog, 1% sucrose, MES); conditions: Arabidopsis thaliana (Ler), 22°C, up to 48 hrs
[6] = system: shoot apical meristems (SAMs) of clv1-1 seedlings; test: In vitro SAM assay in clv1-1 seedlings; format: in vivo, Arabidopsis; conditions: 1 μM fusion protein, 8-d-old clv1-1 seedlings, n = 8
Method: as §4
The commonly known subtilase recognition site is Lys/Arg-Arg. Although in most CLE members of Arabidopsis the residue located before the conserved Arg of the 12-AA CLE motif is Lys (Additional file 3), for CLV3 the residue is Leu. We examined if a Leu69Lys substitution hampered the activity of the fusion protein. TH-ProCLV3Leu69Lys was produced in E. coli and applied to clv3-2 seedlings in vitro.
as §2

[7] = system: roots / root meristems (RMs) of clv2-1 seedlings; test: In vitro root assay in clv2-1 seedlings; format: in vivo, Arabidopsis; conditions: 1 μM TH-ProCLV3, 8-d-old clv2-1 seedlings, n = 8
Method: as §1, §2

WUS expression = test: qRT-PCR of WUS expression in shoot apices of clv3-2 seedlings; format: in vivo, Arabidopsis; conditions: 8-d-old clv3-2 seedlings, 1 μM fusion protein in liquid medium, normalised to EIF4A1, 3 independent biological repeats
Method: To address if these fusion proteins are able to repress the WUS expression in SAMs, qRT-PCR analyses were performed with cDNAs from shoot apices after treatments with various fusion proteins. […] In contrast, the expression level of WUS in the TH-ProCLV3Leu69Ala-treated clv3-2 seedlings was only about 50% of the untreated ones (Figure 5F).
Total RNA was extracted using a Plant Total RNA Isolation Kit (TIANGEN, Beijing, China) from approximately 30 shoot apices excised from 8-d-old seedlings cultured in fusion protein-containing liquid media, and then reverse transcribed to cDNA with the First Strand cDNA Synthesis Kit ReverTra Ace-α (TOYOBO, Japan). qRT–PCR was performed in a Rotor-Gene 3000 thermocycler (Corbett, Australia) with the SYBR Premix ExTaq II kit (TaKaRa, Dalian, China), and the relative expression levels of the WUS [GenBank: NM_127349.3] were normalized against the internal control EIF4A1 [GenBank: NM_001084679.1] and calculated using the Rotor-Gene 6 software v 6.0 (Corbett, Australia) according to the 2^-∆∆CT method. Primer pairs of 5’-[…]-3’ and 5’-[…] -3’, and 5’-TTCTCTGCGACAATGCCTC-3’ and 5’-GCTTCCAGTCTTCTTTC TCCAC-3’ were used to amplify WUS and EIF4A1, respectively.

cleaved bond ([1]; up to 3 d): H-H81
Molecule: EELRTVPSGPDPLHH

Molecule: LRTVPSGPDPLHH
cleaved bond ([1]; up to 3 d): L69-R70; also recorded: R70-T71; also recorded: H-H81

cleaved bond ([1]; up to 3 d): Met-Arg, 3 d
Molecule: FNESMRLSPGGPDPRHH
fragment found ([1]; up to 3 d): FNESMRLSPGGPDPRH; also recorded: FNESMRLSPGGPDPR; also recorded: FNESMRLSPGGPDP; also recorded: SMRLSPGGPDPR; also recorded: RLSPGGPDPR; also recorded: LSPGGPDPRHH; also recorded: SPGGPDPRHH; also recorded: SPGGPDPR

Molecule: EELRTVPSGPDPLHH [EEL-CLV3p15, CLV3p12 with additional 3 N-terminal residues]
Concentration at which the peptide was active in the root assay (primary root length) ([2]; n = 8): 100 nM

Molecule: RTVPSGPDPLHH [CLV3p12, chemically synthesized 12-AA CLV3 peptide corresponding to the CLE motif]
Concentration at which the peptide was active in the root assay (primary root length) ([2]; n = 8): 10 nM
Interaction with CLV1 (CLV1): Direct interaction
Function in promoting stem cell differentiation in vitro [3]: functional in promoting stem cell differentiation in both shoot and root meristems

Molecule: RLSPGGPDPRHH
fragment found ([1]; up to 3 d): RLSPGGPDPRH; also recorded: RLSPGGPDPR; also recorded: LSPGGPDPRHH; also recorded: SPGGPDPRHH; also recorded: SPGGPDPR

cleaved bond ([1]; up to 3 d): Arg70-Thr71
Molecule: HEELRTVPSGPDPLHH

Molecule: LHEELRTVPSGPDPLHH [LHEEL-CLV3p17, CLV3p12 with additional 5 N-terminal residues]
Concentration at which the peptide was active in the root assay (primary root length) ([2]; n = 8): 10 nM

Molecule: MRLSPGGPDPRHH [M-CLE1p13, synthesized CLE1 peptide with 1 N-terminal flanking residue]
Fold less active than CLE1p12 in restricting the sizes of SAMs ([4]; clv3-2 seedlings, 8-d incubation, 10 nM to 10 μM peptide, n = 16): about 100 fold

cleaved bond ([1]; up to 3 d): R70-T71; also recorded: H-H81
Molecule: RTVPSGPDPLHH

Molecule: Trx-His-HAHVQGLSNRKMMMMMKMESEWVGANGEAEKAKTKGLGLHEELRTVPSGPDPLHHHVNPPRQPRNNFQLP
fragment found [5]: RTVPSGPDPLHH (CLV3p12); also recorded: RTVPSGPDPLHHH (CLV3p13)

Molecule: Trx-His-HAHVQGLSNRKMMMMMKMESEWVGANGEAEKAKTKGLGLHEEARTVPSGPDPLHHHVNPPRQPRNNFQLP
fragment found [5]: CLV3p12 (RTVPSGPDPLHH); also recorded: CLV3p13 (RTVPSGPDPLHHH)

cleaved bond ([1]; up to 48 hrs): K38-Met39, major
Molecule: Trx-His-HAHVQGLSNRKMMMMKMESEWVGANGEAEKAKTKGLGLHEELRTVPSGPDPLHHHVNPPRQPRNNFQLP

Molecule: LHEELRTVPSGPDPLHH
cleaved bond ([1]; up to 3 d): Leu69-Arg70, 3 d; also recorded: Arg70-Thr71, 3 d; also recorded: H-H81, first_seen, 2 d

fragment found [5]: MMMMKMESEWVGANGEAEKAKTKGLGLHEEK
Molecule: Trx-His-HAHVQGLSNRKMMMMMKMESEWVGANGEAEKAKTKGLGLHEEKRTVPSGPDPLHHHVNPPRQPRNNFQLP

cleaved bond ([1]; up to 3 d): H-H81
Molecule: LHEEARTVPSGPDPLHH

B1: TH-ProCLV3: CLV3 proprotein without signal peptide, N-terminal Trx and His tags, produced in E. coli, 23.8 kD (protein, UniProt Q9XF04 22-96, looked up)
pro-form: SDLTQAHAHVQGLSNRKMMMMKMESEWVGANGEAEKAKTKGLGLHEELRTVPSGPDPLHHHVNPPRQPRNNFQLP
modifications: pro-form N-terminal thioredoxin and His tags
notes: CLV3 proprotein without signal peptide, N-terminal Trx and His tags, produced in E. coli, 23.8 kD
Sizes of SAMs of clv3-2 seedlings after treatment [4]: significant reduced sizes of SAMs
Sizes of SAMs of clv1-1 seedlings after treatment [6]: no evident reduction; also recorded: no significant differences
Root growth of Ler seedlings ([2]; 1 μM TH-ProCLV3, 8-d-old Ler seedlings, n = 8): inhibited greatly
Root meristem (RM) state in Ler, microscopic examination ([2]; 1 μM TH-ProCLV3, Ler seedlings): termination of RMs in Ler
Root growth of clv2-1 seedlings [7]: no evident growth inhibition
Expression level of WUS in shoot apices relative to non-treated clv3-2 seedlings (WUS expression): about 10%

B2: TH-ProCLV3Leu69Lys: TH-ProCLV3 fusion protein with Leu69Lys substitution, produced in E. coli (protein, UniProt Q9XF04 22-96, looked up, variant L69K)
pro-form: SDLTQAHAHVQGLSNRKMMMMKMESEWVGANGEAEKAKTKGLGLHEEKRTVPSGPDPLHHHVNPPRQPRNNFQLP
modifications: pro-form N-terminal thioredoxin and His tags
notes: TH-ProCLV3 fusion protein with Leu69Lys substitution, produced in E. coli
Sizes of SAMs of clv3-2 seedlings after treatment [4]: no significant difference
Sizes of SAMs of clv1-1 seedlings after treatment [6]: no significant differences

B3: TH-ProCLV3Leu69Ala: TH-ProCLV3 fusion protein with Leu69Ala substitution, produced in E. coli (protein, UniProt Q9XF04 22-96, looked up, variant L69A)
pro-form: SDLTQAHAHVQGLSNRKMMMMKMESEWVGANGEAEKAKTKGLGLHEEARTVPSGPDPLHHHVNPPRQPRNNFQLP
modifications: pro-form N-terminal thioredoxin and His tags
notes: TH-ProCLV3 fusion protein with Leu69Ala substitution, produced in E. coli
Sizes of SAMs of clv3-2 seedlings after treatment [4]: significantly larger than those treated with TH-ProCLV3
Sizes of SAMs of clv1-1 seedlings after treatment [6]: no significant differences
Expression level of WUS in shoot apices relative to non-treated clv3-2 seedlings (WUS expression): about 50%
